Laboratory results reported in PubChem BioAssay (NCI).
“And” between values parts separate entries of the source, which are not always exact repeats. Equal values may be shown once.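 Results reflect a 48-hour exposure of cells in 96-well plates to compound at five concentrations. The concentration for 50% growth inhibition is given as GI50. TGI marks complete inhibition of growth.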

Columns and labels:
Experiment in all cases: DTP human tumour cell line panel, 48 h
HCT-116 colon = test system: HCT-116 colon
HCT-15 colon = test system: HCT-15 colon
MOLT-4 leukemia = test system: MOLT-4 leukemia
NCI-H460 lung = test system: NCI-H460 lung
OVCAR-8 ovarian = test system: OVCAR-8 ovarian
SF-295 CNS = test system: SF-295 CNS
SK-MEL-28 melanoma = test system: SK-MEL-28 melanoma
SK-OV-3 ovarian = test system: SK-OV-3 ovarian
SN12C renal = test system: SN12C renal
HL-60(TB) leukemia = test system: HL-60(TB) leukemia

Row | Compound | GI50 (HCT-116 colon) [µM] | TGI (HCT-116 colon) [µM] | GI50 (HCT-15 colon) [µM] | TGI (HCT-15 colon) | GI50 (MOLT-4 leukemia) [µM] | TGI (MOLT-4 leukemia) | GI50 (NCI-H460 lung) [µM] | TGI (NCI-H460 lung) [µM] | GI50 (OVCAR-8 ovarian) [µM] | TGI (OVCAR-8 ovarian) | GI50 (SF-295 CNS) [µM] | TGI (SF-295 CNS) [µM] | GI50 (SK-MEL-28 melanoma) [µM] | TGI (SK-MEL-28 melanoma) [µM] | GI50 (SK-OV-3 ovarian) | TGI (SK-OV-3 ovarian) [µM] | GI50 (SN12C renal) [µM] | TGI (SN12C renal) [µM] | TGI (HL-60(TB) leukemia) | GI50 (HL-60(TB) leukemia) [µM]
1 | CC(C)(C)c1cc(/C=N/NC(=O)c2ccccc2NC(=O)c2cccs2)c(O)c(C(C)(C)C)c1 | 0.713 | 14.4 | 0.22 | > 100 µM | 0.872 | 20.6 µM | 0.331 | 1.98 | 0.895 | 11.2 µM | 0.521 | 17.9 | 3 | 46.2 | 1.29 µM | > 100 | 1.92 | 62.8 | – | –
2 | COc1cccc(-c2cc(=O)c3cc(N4CCOCC4)ccc3[nH]2)c1 | 0.0371 | – | 0.0328 | 0.227 µM and 0.575 µM | 0.0338 | 1.48 µM and 0.17 µM | 0.272 | > 100 | 0.0303 | 0.337 µM and 0.152 µM | 0.204 | – | 0.0248 | – | 0.0268 µM and 0.044 µM | 36.8 | 0.0868 | > 100 | 0.0593 µM and 0.0492 µM | –
3 | CC(C)(C)C(=O)Nc1cccc2oc(-c3ccccc3)cc12 | – | – | – | > 100 µM | – | > 100 µM | – | > 100 | – | > 100 µM | – | > 100 | – | > 100 | – | > 100 | – | > 100 | > 100 µM | –
4 | COC(=O)c1ccc(/C=C(\c2ccc([N+](=O)[O-])o2)S(=O)(=O)c2ccc(NC(C)=O)cc2)o1 | – | 8.39 | – | 6.83 µM | – | 7.76 µM | – | 53.9 | – | 11.8 µM | – | 32.7 | – | 17.6 | – | 38.2 | – | 1.36 | 8.69 µM | –
5 | COc1c(/C=C/C=O)cc2c(c1OC)OCO2 | – | > 100 | – | 40.2 µM | – | 49.6 µM | – | > 100 | – | > 100 µM | – | 52.1 | – | > 100 | – | > 100 | – | 59.3 | 53.1 µM | –
6 | N#CC1=C(N)NC(=S)NC12Nc1ccccc1S2 (stereo not drawn) | > 100 | > 100 | 28.9 | > 100 µM | 28.8 | > 100 µM | 17 | 45.8 | 39.6 | > 100 µM | 11.5 | 31.7 | 26.3 | 66.9 | 37.1 µM | > 100 | 20.5 | 63.6 | 79.2 µM | 33.6
7 | O=C(O)c1ccc(C(O)(c2ccccc2)c2ccccc2)cc1 | – | > 100 | – | > 100 µM | – | > 100 µM | – | – | – | > 100 µM | – | > 100 | – | > 100 | – | > 100 | – | > 100 | > 100 µM | –
8 | O=C(O)c1cc(=O)cc(C(=O)O)o1 | > 100 | > 100 | > 100 | > 100 µM | > 100 | > 100 µM | > 100 | > 100 | – | – | > 100 | > 100 | > 100 | > 100 | > 100 µM | > 100 | – | – | > 100 µM | > 100
